Earlier results, collected in patent US12702640B2, “Drug implants containing enzalutamide and methods of use thereof” (The Regents of the University of California, priority 2021, dated 2026).

Settings: assuming 240 mg daily dose; systemic (e.g., oral) administration

steady state blood plasma concentration: about 6 μg/ml
Compound: CNC(=O)c1ccc(N2C(=S)N(c3ccc(C#N)c(C(F)(F)F)c3)C(=O)C2(C)C)cc1F [enzalutamide, Enzalutamide]
